Source: US10414769B2, “5,8-dimethyl-9-phenyl-5,8-dihydro-6H-pyrazolo[3,4-h]quinazolin-2-yl)-(1H-pyrazol-3-yl)-amines as IGF-1R/IR inhibitors” (Boehringer Ingelheim International GmbH, priority 2015, dated 2019)

Experiments:
Assay type in all cases: biochemical
[1] = molecular target: T1, GSK3B (GSK3 beta) (Homo sapiens, UniProt P49841); assay: Z'-LYTE kinase selectivity assay GSK3B
T1 construct: purchased Life Technologies PV 3365
Description: (§1) In order to compare the kinase selectivity of compounds (I) according to the invention with known prior art compounds the commercially provided SelectScreen® Kinase Profiling Service (Z′-LYTE®) was used (Life Technologies GmbH, Darmstadt, Germany) to investigate the ability of the compounds to inhibit a number of different, representatively selected human kinases. Further details regarding this service are available on the Life Technologies website at
(§2) The Z′-LYTE® biochemical assay employs a fluorescence-based, coupled-enzyme format and is based on the differential sensitivity of phosphorylated and non-phosphorylated peptides to proteolytic cleavage. The peptide substrate is labeled with two fluorophores—one at each end—that make up a FRET pair.
(§3) In the primary reaction, the kinase transfers the gamma-phosphate of ATP to a single tyrosine, serine or threonine residue in a synthetic FRET-peptide. In the secondary reaction, a site-specific protease recognizes and cleaves non-phosphorylated FRET-peptides. Phosphorylation of FRET-peptides suppresses cleavage by the Development Reagent. Cleavage disrupts FRET between the donor (i.e., coumarin) and acceptor (i.e., fluorescein) fluorophores on the FRET-peptide, whereas uncleaved, phosphorylated FRET-peptides maintain FRET. A ratiometric method, which calculates the ratio (the Emission Ratio) of donor emission to acceptor emission after excitation of the donor fluorophore at 400 nm, is used to quantitate reaction progress, as shown in the equation below.
(§4) The Test Compounds are screened at 1 μM.
The 2×GSK3B (GSK3 beta) (# PV 3365)/Ser/Thr 09 (Z′-LYTE® Kinase Assay Kit—Ser/Thr 9 Peptide, # PV 3324) mixture is prepared in 50 mM HEPES pH 7.5, 0.01% BRIJ-35, 10 mM MgCl2, 1 mM EGTA. The final 10 μL Kinase Reaction consists of 0.17-0.88 ng GSK3B (GSK3 beta) and 2 μM Ser/Thr 09 in 50 mM HEPES pH 7.5, 0.01% BRIJ-35, 10 mM MgCl2, 1 mM EGTA. After the 1 hour Kinase Reaction incubation, 5 μL of a 1:512 dilution of Development Reagent A is added.

[2] = molecular target: T2, CSNK1A1 (CK1 alpha 1) (Homo sapiens, UniProt P48729); assay: Z'-LYTE kinase selectivity assay CSNK1A1
T2 construct: purchased Life Technologies PV 3850
T2 sequence (P48729 whole entry): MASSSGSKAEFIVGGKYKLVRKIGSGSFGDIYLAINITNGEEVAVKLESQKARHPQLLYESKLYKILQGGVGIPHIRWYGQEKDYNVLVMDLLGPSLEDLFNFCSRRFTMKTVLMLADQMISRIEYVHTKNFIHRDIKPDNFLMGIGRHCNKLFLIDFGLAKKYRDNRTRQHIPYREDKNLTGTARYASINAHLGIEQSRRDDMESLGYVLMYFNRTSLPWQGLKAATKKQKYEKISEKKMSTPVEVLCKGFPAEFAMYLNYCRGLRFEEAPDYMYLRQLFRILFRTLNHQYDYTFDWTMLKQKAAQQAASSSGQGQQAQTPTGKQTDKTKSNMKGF
Description: as §1, §2, §3, §4
The 2×CSNK1A1 (CK1 alpha 1) (# PV 3850)/Ser/Thr 11 (Z′-LYTE® Kinase Assay Kit—Ser/Thr 11 Peptide, # PV 3670) mixture is prepared in 50 mM HEPES pH 7.5, 0.01% BRIJ-35, 10 mM MgCl2, 1 mM EGTA, 2 mM DTT. The final 10 μL Kinase Reaction consists of 2.6-13.5 ng CSNK1A1 (CK1 alpha 1) and 2 μM Ser/Thr 11 in 50 mM HEPES pH 7.5, 0.01% BRIJ-35, 10 mM MgCl2, 1 mM EGTA, 1 mM DTT. After the 1 hour Kinase Reaction incubation, 5 μL of a 1:16 dilution of Development Reagent B is added.

[3] = molecular target: T3, MAPKAPK2 (Homo sapiens, UniProt P49137); assay: Z'-LYTE kinase selectivity assay MAPKAPK2
T3 construct: purchased Life Technologies PV 3317
T3 sequence (P49137 whole entry): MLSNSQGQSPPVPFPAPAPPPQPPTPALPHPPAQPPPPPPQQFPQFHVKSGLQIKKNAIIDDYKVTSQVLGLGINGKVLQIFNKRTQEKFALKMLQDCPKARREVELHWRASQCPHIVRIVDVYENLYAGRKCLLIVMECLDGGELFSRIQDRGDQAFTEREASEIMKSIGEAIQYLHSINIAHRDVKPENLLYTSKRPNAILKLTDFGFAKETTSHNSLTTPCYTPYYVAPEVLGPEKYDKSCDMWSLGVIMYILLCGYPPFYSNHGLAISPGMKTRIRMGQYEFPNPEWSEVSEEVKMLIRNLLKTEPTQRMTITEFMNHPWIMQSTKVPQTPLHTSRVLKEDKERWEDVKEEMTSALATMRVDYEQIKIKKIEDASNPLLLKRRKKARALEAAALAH
Description: as §1, §2, §3, §4
The 2×MAPKAPK2 (# PV 3317)/Ser/Thr 04 (Z′-LYTE® Kinase Assay Kit—Ser/Thr 4 Peptide, # PV 3177) mixture is prepared in 50 mM HEPES pH 7.5, 0.01% BRIJ-35, 10 mM MgCl2, 1 mM EGTA. The final 10 μL Kinase Reaction consists of 0.04-0.18 ng MAPKAPK2 and 2 μM Ser/Thr 04 in 50 mM HEPES pH 7.5, 0.01% BRIJ-35, 10 mM MgCl2, 1 mM EGTA. After the 1 hour Kinase Reaction incubation, 5 μL of a 1:1024 dilution of Development Reagent A is added.

[4] = molecular target: T4, MAPK14 (p38 alpha) (Homo sapiens, UniProt Q16539); assay: Z'-LYTE kinase selectivity assay MAPK14
T4 construct: purchased Life Technologies PV 3304
T4 sequence (Q16539 whole entry): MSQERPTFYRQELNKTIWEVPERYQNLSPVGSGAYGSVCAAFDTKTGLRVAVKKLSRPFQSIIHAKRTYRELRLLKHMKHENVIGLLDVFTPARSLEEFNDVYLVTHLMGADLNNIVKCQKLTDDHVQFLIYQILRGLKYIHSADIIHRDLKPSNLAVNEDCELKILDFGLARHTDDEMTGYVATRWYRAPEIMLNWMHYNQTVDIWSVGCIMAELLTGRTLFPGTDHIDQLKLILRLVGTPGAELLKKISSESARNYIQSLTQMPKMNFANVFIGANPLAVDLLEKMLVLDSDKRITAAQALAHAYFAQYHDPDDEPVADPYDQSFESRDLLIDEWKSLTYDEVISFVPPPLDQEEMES
Description: as §1, §2, §3, §4
(§5) After the 1 hour Kinase Reaction incubation, 5 μL of a 1:1024 dilution of Development Reagent A is added.

[5] = molecular target: T5, MAP3K8 (COT) (Homo sapiens, UniProt P41279); assay: Z'-LYTE kinase selectivity assay MAP3K8
T5 construct: purchased Life Technologies PV 4313
T5 sequence (P41279 whole entry): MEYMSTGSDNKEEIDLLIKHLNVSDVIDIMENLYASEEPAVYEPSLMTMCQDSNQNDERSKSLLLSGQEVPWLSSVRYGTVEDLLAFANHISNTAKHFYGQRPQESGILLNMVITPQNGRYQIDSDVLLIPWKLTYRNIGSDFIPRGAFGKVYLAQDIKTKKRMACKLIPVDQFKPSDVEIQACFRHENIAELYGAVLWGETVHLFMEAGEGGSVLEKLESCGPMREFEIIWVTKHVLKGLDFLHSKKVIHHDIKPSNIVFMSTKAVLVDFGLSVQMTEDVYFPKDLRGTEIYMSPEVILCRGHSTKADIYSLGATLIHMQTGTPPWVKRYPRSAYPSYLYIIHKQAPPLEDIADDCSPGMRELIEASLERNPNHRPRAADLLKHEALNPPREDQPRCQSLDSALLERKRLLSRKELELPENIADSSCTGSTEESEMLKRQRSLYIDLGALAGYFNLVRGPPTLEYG
Description: as §1, §2, §3, §4, §5

[6] = molecular target: T6, TBK1 (Homo sapiens, UniProt Q9UHD2); assay: Z'-LYTE kinase selectivity assay TBK1
T6 construct: purchased Life Technologies PV 3504
T6 sequence (Q9UHD2 1-729): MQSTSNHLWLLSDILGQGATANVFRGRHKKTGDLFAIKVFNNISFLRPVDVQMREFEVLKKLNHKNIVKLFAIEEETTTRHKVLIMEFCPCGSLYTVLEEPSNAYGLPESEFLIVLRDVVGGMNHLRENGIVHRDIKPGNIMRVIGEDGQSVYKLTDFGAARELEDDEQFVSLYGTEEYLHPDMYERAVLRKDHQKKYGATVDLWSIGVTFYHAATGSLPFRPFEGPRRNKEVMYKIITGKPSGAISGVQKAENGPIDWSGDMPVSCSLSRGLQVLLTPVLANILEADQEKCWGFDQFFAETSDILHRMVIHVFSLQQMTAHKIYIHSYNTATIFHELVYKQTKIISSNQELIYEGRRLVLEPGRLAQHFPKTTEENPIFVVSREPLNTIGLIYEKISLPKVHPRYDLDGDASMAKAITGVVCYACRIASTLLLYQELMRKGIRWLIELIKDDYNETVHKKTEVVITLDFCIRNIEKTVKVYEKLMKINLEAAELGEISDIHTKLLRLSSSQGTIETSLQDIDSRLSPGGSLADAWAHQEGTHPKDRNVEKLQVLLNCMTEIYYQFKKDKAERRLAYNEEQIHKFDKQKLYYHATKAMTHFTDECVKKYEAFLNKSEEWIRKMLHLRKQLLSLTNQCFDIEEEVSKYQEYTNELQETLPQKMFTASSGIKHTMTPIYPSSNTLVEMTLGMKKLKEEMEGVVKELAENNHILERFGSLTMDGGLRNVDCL
Description: as §1, §2, §3, §4
The 2×TBK1 (# PV 3504)/Ser/Thr 05 (Z′-LYTE® Kinase Assay Kit—Ser/Thr 5 Peptide, # PV 3178) mixture is prepared in 50 mM HEPES pH 7.5, 0.01% BRIJ-35, 10 mM MgCl2, 1 mM EGTA. The final 10 μL Kinase Reaction consists of 0.7-9.72 ng TBK1 and 2 μM Ser/Thr 05 in 50 mM HEPES pH 7.5, 0.01% BRIJ-35, 10 mM MgCl2, 1 mM EGTA. After the 1 hour Kinase Reaction incubation, 5 μL of a 1:64 dilution of Development Reagent B is added.

T1 sequence (P49841 whole entry): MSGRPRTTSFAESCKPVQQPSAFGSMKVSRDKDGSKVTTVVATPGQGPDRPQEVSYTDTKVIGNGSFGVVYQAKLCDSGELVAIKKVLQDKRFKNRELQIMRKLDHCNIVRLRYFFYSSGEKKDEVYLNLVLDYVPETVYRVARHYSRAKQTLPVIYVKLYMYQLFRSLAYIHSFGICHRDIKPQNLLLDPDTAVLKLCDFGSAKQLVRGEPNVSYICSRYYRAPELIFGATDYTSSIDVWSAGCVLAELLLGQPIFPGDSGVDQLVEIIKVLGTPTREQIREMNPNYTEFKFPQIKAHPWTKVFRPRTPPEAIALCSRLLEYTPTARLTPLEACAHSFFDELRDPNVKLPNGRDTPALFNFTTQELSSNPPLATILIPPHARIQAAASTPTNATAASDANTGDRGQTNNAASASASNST

inhibition at 1 µM [1] [%]	inhibition at 1 µM [2] [%]	inhibition at 1 µM [3] [%]	inhibition at 1 µM [4] [%]	inhibition at 1 µM [5] [%]	inhibition at 1 µM [6] [%]	Compound
9	37	3	4	37	57	C[C@@H]1Cc2nn(C)c(-c3ccccc3)c2-c2nc(Nc3ccn(CCN4CCN(CC5CCCO5)CC4)n3)ncc21 (stereo partly drawn) [Compound I-9]
9	37	2	2	45	51	C[C@@H]1Cc2nn(C)c(-c3ccccc3)c2-c2nc(Nc3ccn(CCN4CCN(CC(C)(C)O)CC4)n3)ncc21 [Compound I-3]
8	17	-2	1	22	33	COCCN1CCN(CCn2ccc(Nc3ncc4c(n3)-c3c(nn(C)c3-c3ccccc3)C[C@H]4C)n2)CC1 [Compound I-11]
14	38	5	-5	38	46	C[C@@H]1Cc2nn(C)c(-c3ccccc3)c2-c2nc(Nc3ccn(CCN4CCN(CC(=O)OC5CCOCC5)CC4)n3)ncc21 [Compound I-8]
14	16	-3	-5	27	38	C[C@@H]1Cc2nn(C)c(-c3ccccc3)c2-c2nc(Nc3ccn(CCN4CCN(C)CC4)n3)ncc21 [Compound I-1]
10	29	5	2	42	49	CC(O)CN1CCN(CCn2ccc(Nc3ncc4c(n3)-c3c(nn(C)c3-c3ccccc3)C[C@H]4C)n2)CC1 (stereo partly drawn) [Compound I-7]
10	49	1	7	57	48	C[C@@H]1Cc2nn(C)c(-c3ccccc3)c2-c2nc(Nc3ccn(CCN4CCOCC4)n3)ncc21 [Compound I-2]
